What is called IC50 is the point on the concentration scale where inhibition reaches its midpoint.

This experiment deals with human PDHK2 (hPDHK2) (Homo sapiens (Human), UniProt Q15119). In words: Inhibitory action of PDHK2 activity (PDH/hPDHK2 complex, residual PDH activity by NADH absorbance at 340 nm). Type of experiment: biochemical. To be noted: FLAG-tagged recombinant hPDHK2 with porcine heart PDH complex; PDHK reaction 45 min at room temperature. As to the method:
In the case of human PDHK2 (hPDHK2, NCBI Reference Database Accession number NM_002611.4), modified hPDHK2 cDNA wherein FLAG-Tag sequence was added to the N terminal of hPDHK2 cDNA clone (pReceiver-M01/PDK2-GeneCopoeia) as the base was prepared by polymerase chain reaction (PCR) and ligated to the NdeI/EcoRI site of pET-17b vector (Merck KGaA, Catalog Number 69663-3). The recombinant construct was transformed into Escherichia coli DH5a. The recombinant clones were identified, and plasmid DNA was isolated and subjected to the DNA sequence analysis. One clone which had the expected nucleic acid sequence was selected for expression work.
For expression of hPDHK2 activity, Escherichia coli strain BL21(DE3) cells (Merck KGaA, Catalog Number 69450-4) were transformed with the pET17b vector containing modified hPDHK2 cDNA. The Escherichia coli were grown to an optical density 0.6 ([…]) at 30° C. Protein expression was induced by the addition of 500 μmol/L isopropyl-β-thiogalactopyranoside. The Escherichia coli were cultured at 20° C. for 17 to for 18 hr and harvested by centrifugation. The harvested Escherichia coli was resuspended in a suspension buffer (20 mmol/L HEPES-NaOH, 500 mmol/L sodium chloride, 1% ethylene glycol, 0.1% Pluronic (registered trademark) F-68 (pH 8.0), cOmplete, EDTA-free (Roche) (pH 8.0)), and disrupted by a microfluidizer M-110H (MIZUHO INDUSTRIAL CO., LTD.). The precipitate was removed by centrifugation and the supernatant was added to DDDDK-tagged Protein PURIFICATION GEL (MEDICAL & BIOLOGICAL LABORATORIES CO., LTD., Code No. 3329). DDDDK-tagged Protein PURIFICATION GEL was washed with a washing buffer (20 mmol/L HEPES-NaOH, 500 mmol/L sodium chloride, 1% ethylene glycol, 0.1% Pluronic F-68 (pH 8.0)) and the bound protein was eluted with elution buffer 1 (20 mmol/L HEPES-NaOH, 100 μg/mL peptide (amino acid sequence DYKDDDDK) (SEQ ID NO: 1), 500 mmol/L sodium chloride, 1% ethylene glycol, 0.1% Pluronic F-68 (pH 8.0)). The eluted fractions containing FLAG-Tagged protein were pooled, concentrated by an ultrafiltration method, added to a gel filtration column (HiLoad 26/60 Superdex 200 (GE Healthcare Life Sciences, Code No. 17-1070-01)), and eluted with elution buffer 2 (20 mmol/L HEPES-NaOH, 150 mmol/L sodium chloride, 0.5 mmol/L ethylenediaminetetraacetic acid (EDTA), 1% ethylene glycol, 0.1% Pluronic F-68 (pH 8.0)). The eluted fractions were pooled and preserved at −80° C.
PDH (porcine heart PDH complex, Sigma P7032) and 0.5 μg/mL hPDHK2 were mixed in an assay buffer (50 mmol/L 3-morpholinopropanesulfonic acid (pH 7.0), 20 mmol/L dipotassium hydrogen phosphate, 60 mmol/L potassium chloride, 2 mmol/L magnesium chloride, 0.4 mmol/L EDTA, 0.2% poloxamer, 2 mmol/L dithiothreitol) so that the final concentration of PDH was 0.025 U/mL, and the mixture was incubated at 4° C. overnight to obtain a PDH/hPDHK2 complex solution.
PDH was mixed with the assay buffer so that the final concentration was 0.025 U/mL, and the mixture was incubated at 4° C. overnight to prepare a PDH solution.
The test compounds were diluted with DMSO. […] DMSO (1.5 μL) was added to control wells instead of test compound. In addition, DMSO (1.5 μL) was added to blank wells instead of the test compound, and PDH solution was added instead of the PDH/hPDHK2 complex solution. To measure an inhibitory action of the test compound on the PDHK activity inherent in the PDH solution, a test compound was added and the PDH solution instead of the PDH/hPDHK2 complex solution was added to a blank+test compound well.
Then, 10 μL of substrates (5 mmol/L sodium pyruvate, 5 mmol/L Coenzyme A, 12 mmol/L NAD, 5 mmol/L thiamine pyrophosphate, diluted with assay buffer) were added. The mixture was incubated at room temperature for 90 min, and the residual PDH activity was measured.
The absorbance of each well at 340 nm was measured using a microplate reader to detect NADH produced by the PDH reaction. […]
As to `C[C@@H]1Cc2nn(CC#N)cc2-c2onc([C@](C)(O)C(F)(F)F)c21` [Example 49], the IC50 was found to be 19.5 nM.
`C[C@H]1Cn2nc(OC3CCOCC3)cc2-c2onc([C@@](C)(O)C(F)(F)F)c21` [Example 59, (R)-1,1,1-trifluoro-2-((R)-4-methyl-8-((tetrahydro-2H-pyran-4-yl)oxy)-4,5-dihydroisoxazolo[5,4-c]pyrazolo[1,5-a]pyridin-3-yl)propan-2-ol]: the concentration for half-maximal inhibition (IC50) is 7.1 nM.
As for `C[C@H]1Cn2nccc2-c2onc([C@@](C)(O)C(F)(F)F)c21` [Example 60, (R)-1,1,1-trifluoro-2-((R)-4-methyl-4,5-dihydroisoxazolo[5,4-c]pyrazolo[1,5-a]pyridin-3-yl)propan-2-ol], the IC50 was found to be 6.7 nM.
Take `C[C@H]1Cn2nc(C3CCOCC3)cc2-c2onc([C@@](C)(O)C(F)(F)F)c21` [Example 61, (R)-1,1,1-trifluoro-2-((R)-4-methyl-8-(tetrahydro-2H-pyran-4-yl)-4,5-dihydroisoxazolo[5,4-c]pyrazolo[1,5-a]pyridin-3-yl)propan-2-ol]: the IC50 turned out to be 9.8 nM.
`C[C@H]1Cn2nc(OCCC(C)(C)O)cc2-c2onc([C@@](C)(O)C(F)(F)F)c21` [Example 62, 2-methyl-4-(((R)-4-methyl-3-((R)-1,1,1-trifluoro-2-hydroxypropan-2-yl)-4,5-dihydroisoxazolo[5,4-c]pyrazolo[1,5-a]pyridin-8-yl)oxy)butan-2-ol]: the IC50 amounted to 8 nM.
As to `C[C@H]1Cn2nc(O[C@H]3C[C@](C)(C#N)C3)cc2-c2onc([C@@](C)(O)C(F)(F)F)c21` [Example 63, (1R,3r)-1-methyl-3-(((R)-4-methyl-3-((R)-1,1,1-trifluoro-2-hydroxypropan-2-yl)-4,5-dihydroisoxazolo[5,4-c]pyrazolo[1,5-a]pyridin-8-yl)oxy)cyclobutane-1-carbonitrile], the IC50 amounted to 9.1 nM.
For `C[C@H]1Cn2nc(OCF)cc2-c2onc([C@@](C)(O)C(F)(F)F)c21` [Example 64, (R)-1,1,1-trifluoro-2-((R)-8-(fluoromethoxy)-4-methyl-4,5-dihydroisoxazolo[5,4-c]pyrazolo[1,5-a]pyridin-3-yl)propan-2-ol], the IC50 was 7.5 nM.
On to `C[C@H]1Cn2nc(O[C@H]3CC[C@](C)(O)CC3)cc2-c2onc([C@@](C)(O)C(F)(F)F)c21` [Example 65, (1R,4r)-1-methyl-4-(((R)-4-methyl-3-((R)-1,1,1-trifluoro-2-hydroxypropan-2-yl)-4,5-dihydroisoxazolo[5,4-c]pyrazolo[1,5-a]pyridin-8-yl)oxy)cyclohexan-1-ol], for which the IC50 worked out at 6.6 nM.
In the case of `C[C@H]1Cn2nc(OCCF)cc2-c2cnc([C@@](C)(O)C(F)(F)F)n21` [Example 66], the IC50 worked out at 13.7 nM.
Consider `COc1cc2n(n1)C[C@H](C)n1c-2cnc1[C@@](C)(O)C(F)(F)F` [Example 67], for which the IC50 was 11.5 nM.
`COCCOc1cc2n(n1)C[C@H](C)n1c-2cnc1[C@@](C)(O)C(F)(F)F` [Example 68]: the IC50 worked out at 15.2 nM.
On to `C[C@H]1Cn2nc(C34CCC(CO)(CC3)CC4)cc2-c2cnc([C@@](C)(O)C(F)(F)F)n21` [Example 69], for which the half-maximal inhibitory concentration (IC50) is 18 nM.
Turning to `C[C@H]1Cn2nc(C34CC(CO)(C3)C4)cc2-c2cnc([C@@](C)(O)C(F)(F)F)n21` [Example 70], the IC50 worked out at 21.2 nM.
For `C[C@H]1Cn2nc(C34CCC(C#N)(CC3)CC4)cc2-c2cnc([C@@](C)(O)C(F)(F)F)n21` [Example 71, 4-((S)-5-methyl-3-((R)-1,1,1-trifluoro-2-hydroxypropan-2-yl)-5,6-dihydroimidazo[1,5-a]pyrazolo[5,1-c]pyrazin-9-yl)bicyclo[2.2.2]octane-1-carbonitrile] the value was 6.6 nM.
For the compound `C[C@H]1Cn2nc(C34CC(C#N)(C3)C4)cc2-c2cnc([C@@](C)(O)C(F)(F)F)n21` [Example 72], the 50% inhibitory concentration (IC50) came out at 12.3 nM.
In the case of `C[C@H]1Cn2nc(N3CCOCC3)cc2-c2cnc([C@@](C)(O)C(F)(F)F)n21` [Example 74], the IC50 was found to be 18.4 nM.
In the case of `C[C@H]1Cn2nc(C34CCC(C(C)(C)O)(CC3)CC4)cc2-c2cnc([C@@](C)(O)C(F)(F)F)n21` [Example 75], the IC50 was 10 nM.
For `C[C@H]1Cn2nc(C34CC(C(C)(C)O)(C3)C4)cc2-c2cnc([C@@](C)(O)C(F)(F)F)n21` [Example 76] the value was 14.5 nM.
For `C[C@H]1Cn2nc(N3CCC4(CC3)COC4)cc2-c2cnc([C@@](C)(O)C(F)(F)F)n21` [Example 77] the value was 14.4 nM.
As to `C[C@H]1Cn2nc(N3CC4C(C3)C4(F)F)cc2-c2cnc([C@@](C)(O)C(F)(F)F)n21` (some centres unmarked) [Example 78], the IC50 was 15.1 nM.
Take `C[C@H]1Cn2nc(N3CC4CC(C3)C4(F)F)cc2-c2cnc([C@@](C)(O)C(F)(F)F)n21` [Example 79]: the IC50 was 35.2 nM.
For `C[C@H]1Cn2nc(N3C[C@H]4COC[C@H]4C3)cc2-c2cnc([C@@](C)(O)C(F)(F)F)n21` [Example 80], the IC50 was 43.4 nM.
With `C[C@H]1Cn2nc(N3C[C@@H]4C[C@H]3CO4)cc2-c2cnc([C@@](C)(O)C(F)(F)F)n21` [Example 81], the IC50 was 29.8 nM.
For `C[C@H]1Cn2nc(N3C[C@H]4C[C@@H]3CO4)cc2-c2cnc([C@@](C)(O)C(F)(F)F)n21` [Example 82], the IC50 was 34 nM.
`C[C@H]1Cn2nc(N3CC4CC3C4)cc2-c2cnc([C@@](C)(O)C(F)(F)F)n21` [Example 83]: the half-maximal inhibitory concentration (IC50) is 18.6 nM.
With `C[C@H]1Cn2nc(N3CC4(C3)CC(F)(F)C4)cc2-c2cnc([C@@](C)(O)C(F)(F)F)n21` [Example 84, (R)-2-((S)-9-(6,6-difluoro-2-azaspiro[3.3]heptan-2-yl)-5-methyl-5,6-dihydroimidazo[1,5-a]pyrazolo[5,1-c]pyrazin-3-yl)-1,1,1-trifluoropropan-2-ol], the IC50 worked out at 36.5 nM.
The figure for `C[C@H]1Cn2nc(C34CCC(CO)(CC3)OC4)cc2-c2cnc([C@@](C)(O)C(F)(F)F)n21` [Example 85] is 16.6 nM.
With `C[C@H]1Cn2nc(C34CCC(C#N)(CC3)C4)cc2-c2cnc([C@@](C)(O)C(F)(F)F)n21` [Example 86, 4-((S)-5-methyl-3-((R)-1,1,1-trifluoro-2-hydroxypropan-2-yl)-5,6-dihydroimidazo[1,5-a]pyrazolo[5,1-c]pyrazin-9-yl)bicyclo[2.2.1]heptane-1-carbonitrile], the IC50 turned out to be 14.1 nM.
For `C[C@H]1Cn2nc(C34CCC(CO)(CC3)C4)cc2-c2cnc([C@@](C)(O)C(F)(F)F)n21` [Example 87], the IC50 was 11 nM.
For the compound `C[C@H]1Cn2nc(C34CCC(C#N)(CC3)OC4)cc2-c2cnc([C@@](C)(O)C(F)(F)F)n21` [Example 88, 4-((S)-5-methyl-3-((R)-1,1,1-trifluoro-2-hydroxypropan-2-yl)-5,6-dihydroimidazo[1,5-a]pyrazolo[5,1-c]pyrazin-9-yl)-2-oxabicyclo[2.2.2]octane-1-carbonitrile], the IC50 came to 23.8 nM.
For `C[C@H]1Cn2nc(OCC34CCC(C#N)(CC3)CC4)cc2-c2cnc([C@@](C)(O)C(F)(F)F)n21` [Example 89] the value was 37.7 nM.
For `C[C@H]1Cn2nc(OCC34CCC(C#N)(CC3)C4)cc2-c2cnc([C@@](C)(O)C(F)(F)F)n21` [Example 90] the value was 30.5 nM.

(Values after US20240417406A1, “NITROGEN-CONTAINING TRICYCLIC COMPOUND AND PHARMACEUTICAL USE THEREOF” (JAPAN TOBACCO INC., priority 2021, published 2024).)
